Experimental findings from ChEMBL document CHEMBL1147573, “Chemiluminescence quenching of pteroic acid-N-sulfonyl-acridinium-9-carboxamide conjugates by folate binding protein” (Bioorg Med Chem Lett, 2004) are described below.

A short description of this assay: Binding affinity towards folate binding protein.

With `Cc1ccc(S(=O)(=O)N(CCCC(=O)NCCCCCCNC(=O)c2ccc(N(Cc3cnc4nc(N)nc(O)c4n3)C(=O)C(F)(F)F)cc2)C(=O)c2c3ccccc3[n+](CCCS(=O)(=O)[O-])c3ccccc23)cc1`, the IC50 worked out at 8.43 nM. As to `Cc1ccc(S(=O)(=O)N(CCCS(=O)(=O)[O-])C(=O)c2c3ccccc3[n+](CCCCCCCCCC(=O)NCCCCCCNC(=O)c3ccc(N(Cc4cnc5nc(N)nc(O)c5n4)C(=O)C(F)(F)F)cc3)c3ccccc23)cc1`, the IC50 is 8.14 nM.

What is called IC50 is the midpoint of a concentration-inhibition curve.
